Experimental data taken from US10189841B2, “Purinones as ubiquitin-specific protease 1 inhibitors” (Forma Therapeutics, Inc., priority 2015, dated 2019).

molecular target: USP1 (construct USP1 (I-785, GG670, 671AA)/UAF1 (I-677)-Flag) (Homo sapiens (Human), UniProt O94782, G670A/G671A); experiment: Ubiquitin-Rhodamine 110 assay for USP1 activity; type: biochemical; conditions: USP1/UAF1 25 pM, Ub-Rh110 25 nM, 30 min preincubation
Procedure, shortened: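 Two formats with the USP1/UAF1 complex and 25 nM ubiquitin-rhodamine 110 in pH 8.0 Tris buffer with calcium, glutathione and detergent. Single-point screening used 10 µM, 100 pM enzyme and 45 min. Inhibition was set against no-enzyme and DMSO wells.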

Sequence of USP1 (construct USP1 (I-785, GG670, 671AA)/UAF1 (I-677)-Flag) (O94782 whole entry G670A/G671A): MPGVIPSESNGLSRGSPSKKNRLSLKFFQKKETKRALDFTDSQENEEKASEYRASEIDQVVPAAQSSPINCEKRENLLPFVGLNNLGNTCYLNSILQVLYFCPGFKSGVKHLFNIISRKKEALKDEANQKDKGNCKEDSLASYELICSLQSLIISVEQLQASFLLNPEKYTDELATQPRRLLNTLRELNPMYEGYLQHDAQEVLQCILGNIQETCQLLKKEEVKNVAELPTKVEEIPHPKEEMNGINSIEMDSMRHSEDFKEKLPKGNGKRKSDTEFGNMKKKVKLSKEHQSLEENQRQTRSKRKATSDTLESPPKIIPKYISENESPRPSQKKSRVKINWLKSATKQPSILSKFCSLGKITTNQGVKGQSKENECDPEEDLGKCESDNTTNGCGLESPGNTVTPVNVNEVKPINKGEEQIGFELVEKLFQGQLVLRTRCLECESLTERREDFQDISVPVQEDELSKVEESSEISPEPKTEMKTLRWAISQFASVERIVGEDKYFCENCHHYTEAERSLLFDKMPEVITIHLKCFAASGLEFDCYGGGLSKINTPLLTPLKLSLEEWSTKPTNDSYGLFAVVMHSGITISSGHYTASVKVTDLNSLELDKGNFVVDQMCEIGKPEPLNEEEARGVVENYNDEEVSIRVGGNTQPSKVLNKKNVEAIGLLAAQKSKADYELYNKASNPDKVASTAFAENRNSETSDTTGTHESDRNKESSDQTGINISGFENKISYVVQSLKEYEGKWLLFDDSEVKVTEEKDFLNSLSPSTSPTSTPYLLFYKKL
Sequence of USP1 (construct USP1 (I-785, GG670, 671AA)/UAF1 (I-677)-Flag) (Q8TAF3 whole entry partner): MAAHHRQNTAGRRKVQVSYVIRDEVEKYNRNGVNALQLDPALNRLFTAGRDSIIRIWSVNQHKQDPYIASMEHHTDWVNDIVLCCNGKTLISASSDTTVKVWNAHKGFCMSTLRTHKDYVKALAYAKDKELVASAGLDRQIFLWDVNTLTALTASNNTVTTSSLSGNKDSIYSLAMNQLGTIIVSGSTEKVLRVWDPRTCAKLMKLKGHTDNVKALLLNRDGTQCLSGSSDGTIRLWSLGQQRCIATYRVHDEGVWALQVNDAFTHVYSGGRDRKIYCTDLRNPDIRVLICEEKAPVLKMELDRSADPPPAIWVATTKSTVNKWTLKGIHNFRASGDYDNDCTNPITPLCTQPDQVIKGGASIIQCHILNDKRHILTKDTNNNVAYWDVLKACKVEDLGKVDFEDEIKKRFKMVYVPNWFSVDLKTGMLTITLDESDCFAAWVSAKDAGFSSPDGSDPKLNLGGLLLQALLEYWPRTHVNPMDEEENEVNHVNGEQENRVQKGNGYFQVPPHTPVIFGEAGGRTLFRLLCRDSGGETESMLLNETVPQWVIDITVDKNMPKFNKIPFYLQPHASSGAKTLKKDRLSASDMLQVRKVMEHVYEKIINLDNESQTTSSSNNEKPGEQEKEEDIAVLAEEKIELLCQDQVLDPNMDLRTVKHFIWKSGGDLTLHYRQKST

`Cc1cc(C)n([C@H]2CC[C@@H](Cn3c(=O)n(C)c4cnc(-c5ccccc5C(C)C)nc43)CC2)n1` [Compound I-111, 9-(((1s,4s)-4-(3,5-dimethyl-1H-pyrazol-1-yl)cyclohexyl)methyl)-2-(2-isopropylphenyl)-7-methyl-7,9-dihydro-8H-purin-8-one] and `CC(C)c1ccccc1-c1ncc2c(n1)n(Cc1ccc(OC3CCC3)cc1)c(=O)n2C` [Compound I-237, 9-(4-cyclobutoxybenzyl)-2-(2-isopropylphenyl)-7-methyl-7,9-dihydro-8H-purin-8-one] fall in the same range of IC50: 50 to 200 nM for the first, 50 to 200 nM for the second.

`Cn1cc(C(F)(F)F)nc1-c1ccc(Cn2c(=O)[nH]c3cnc(-c4cccnc4N4CC(F)C4)nc32)cc1` [Compound I-334, 2-(2-(3-fluoroazetidin-1-yl)pyridin-3-yl)-9-(4-(1-methyl-4-(trifluoromethyl)-1H-imidazol-2-yl)benzyl)-7,9-dihydro-8H-purin-8-one] and `CC(C)c1ncccc1-c1ncc2[nH]c(=O)n(Cc3ccc(-c4nc(C(F)(F)F)cn4C4CN(C)C4)cc3)c2n1` [Compound I-438, 2-(2-Isopropylpyridin-3-yl)-9-(4-(1-(1-methylazetidin-3-yl)-4-(trifluoromethyl)-1H-imidazol-2-yl)benzyl)-7,9-dihydro-8H-purin-8-one] cannot be ordered by IC50: less than 50 nM for the first, less than 50 nM for the second.

First: O=c1[nH]c2cnc(-c3ccccc3OCC3CC3)nc2n1Cc1ccc(-n2cccn2)cc1 [Compound I-23, 9-(4-(1H-pyrazol-1-yl)benzyl)-2-(2-(cyclopropylmethoxy)phenyl)-7,9-dihydro-8H-purin-8-one]
Second: O=c1[nH]c2cnc(-c3ccccc3C3CC3)nc2n1Cc1ccc(-n2cccn2)cc1 [Compound I-94, 9-(4-(1H-pyrazol-1-yl)benzyl)-2-(2-cyclopropylphenyl)-7,9-dihydro-8H-purin-8-one]
The IC50 of the first is higher: 50 to 200 nM for the first, less than 50 nM for the second. The second is the more potent here.

`CC(C)c1ccccc1-c1ncc2[nH]c(=O)n(Cc3ccc(-c4nc(C(F)(F)F)n(C)n4)cc3)c2n1` [Compound I-293, 2-(2-isopropylphenyl)-9-(4-(1-methyl-5-(trifluoromethyl)-1H-1,2,4-triazol-3-yl)benzyl)-7,9-dihydro-8H-purin-8-one] and `CC(C)c1ccccc1-c1ncc2[nH]c(=O)n(Cc3ccc(-c4ncc(C(F)(F)F)n4C)cc3)c2n1` [Compound I-219, 2-(2-isopropylphenyl)-9-(4-(1-methyl-5-(trifluoromethyl)-1H-imidazol-2-yl)benzyl)-7,9-dihydro-8H-purin-8-one] cannot be ordered by IC50: less than 50 nM for the first, less than 50 nM for the second.

`Cc1cnc(-c2ccc(Cn3c(=O)[nH]c4cnc(-c5ccccc5C(C)C)nc43)cc2)n1C(C)C` [Compound I-536, 9-(4-(1-Isopropyl-5-methyl-1H-imidazol-2-yl)benzyl)-2-(2-isopropylphenyl)-7,9-dihydro-8H-purin-8-one] and `Cc1scnc1-c1ccc(Cn2c(=O)[nH]c3cnc(-c4ccccc4C(C)C)nc32)cc1` [Compound I-300, 2-(2-isopropylphenyl)-9-(4-(5-methylthiazol-4-yl)benzyl)-7,9-dihydro-8H-purin-8-one] cannot be ordered by IC50: less than 50 nM for the first, less than 50 nM for the second.

`CC(C)c1ccccc1-c1ncc2[nH]c(=O)n(C3CCC34CN(c3cccnc3)C4)c2n1` (stereo not drawn) [Compound I-495, 2-(2-isopropylphenyl)-9-(2-(pyridin-3-yl)-2-azaspiro[3.3]heptan-5-yl)-7,9-dihydro-8H-purin-8-one] and `CC(C)c1ccccc1-c1ncc2[nH]c(=O)n([C@H]3CC[C@@H]3c3ccc(-n4cccn4)cc3)c2n1` [Compound I-164, 9-((1S,2R)-2-(4-(1H-pyrazol-1-yl)phenyl)cyclobutyl)-2-(2-isopropylphenyl)-7,9-dihydro-8H-purin-8-one] fall in the same range of IC50: 200 to 2000 nM for the first, 200 to 2000 nM for the second.

First: CC(C)c1ccccc1-c1ncc2[nH]c(=O)n(Cc3ccc(C(=O)N4CCC(F)(F)CC4)cc3)c2n1 [Compound I-388, 9-(4-(4,4-difluoropiperidine-1-carbonyl)benzyl)-2-(2-isopropylphenyl)-7,9-dihydro-8H-purin-8-one]
Second: CC(C)c1ccccc1-c1ncc2[nH]c(=O)n(Cc3ccc(C(=O)NC4CC4)cc3)c2n1 [Compound I-353, N-cyclopropyl-4-((2-(2-isopropylphenyl)-8-oxo-7,8-dihydro-9H-purin-9-yl)methyl)benzamide]
The IC50 of the first is higher: 200 to 2000 nM for the first, 50 to 200 nM for the second.

`Cn1cc(C(F)(F)F)nc1-c1ccc(Cn2c(=O)[nH]c3cnc(-c4cccc5ccn(C)c45)nc32)cc1` [Compound I-45, 2-(1-methyl-1H-indol-7-yl)-9-(4-(1-methyl-4-(trifluoromethyl)-1H-imidazol-2-yl)benzyl)-7,9-dihydro-8H-purin-8-one] and `CCOCCNc1ncccc1-c1ncc2[nH]c(=O)n(Cc3ccc(-c4nc(C(F)(F)F)cn4C)cc3)c2n1` [Compound I-315, 2-(2-((2-ethoxyethyl)amino)pyridin-3-yl)-9-(4-(1-methyl-4-(trifluoromethyl)-1H-imidazol-2-yl)benzyl)-7,9-dihydro-8H-purin-8-one] cannot be ordered by IC50: less than 50 nM for the first, less than 50 nM for the second.

First: CC(C)c1ccncc1-c1ncc2c(n1)n(Cc1ccc(-n3cccn3)cc1)c(=O)n2C [Compound I-17, 9-(4-(1H-pyrazol-1-yl)benzyl)-2-(4-isopropylpyridin-3-yl)-7-methyl-7,9-dihydro-8H-purin-8-one]
Second: Cc1nc(-c2ccc(Cn3c(=O)n(C)c4cnc(-c5ccccc5C(C)C)nc43)cc2)nn1C [Compound I-279, 9-(4-(1,5-dimethyl-1H-1,2,4-triazol-3-yl)benzyl)-2-(2-isopropylphenyl)-7-methyl-7,9-dihydro-8H-purin-8-one]
The IC50 of the first is higher: greater than 2000 nM for the first, less than 50 nM for the second. The second is the more potent here.

First: CC(C)c1ccccc1-c1ncc2[nH]c(=O)n(Cc3ccc4c(c3)CN(C)C4=O)c2n1 [Compound I-186, 2-(2-isopropylphenyl)-9-((2-methyl-1-oxoisoindolin-5-yl)methyl)-7,9-dihydro-8H-purin-8-one]
Second: CC(C)c1ccccc1-c1ncc2[nH]c(=O)n(Cc3ccc(-c4ccnn4C)cc3)c2n1 [Compound I-256, 2-(2-isopropylphenyl)-9-(4-(1-methyl-1H-pyrazol-5-yl)benzyl)-7,9-dihydro-8H-purin-8-one]
The IC50 of the first is higher: 50 to 200 nM for the first, less than 50 nM for the second. The second is the more potent here.

Compared with `CC(C)c1ccccc1-c1ncc2c(n1)n(Cc1ccc(-c3cnn4c3COCC4)cc1)c(=O)n2C` [Compound I-265, 9-(4-(6,7-dihydro-4H-pyrazolo[5,1-c][1,4]oxazin-3-yl)benzyl)-2-(2-isopropylphenyl)-7-methyl-7,9-dihydro-8H-purin-8-one], `Cc1nc(S(=O)(=O)Nc2ccc(Cn3c(=O)n(C)c4cnc(-c5ccccc5C(C)C)nc43)cc2)cn1C` [Compound I-455, N-(4-((2-(2-isopropylphenyl)-7-methyl-8-oxo-7,8-dihydro-9H-purin-9-yl)methyl)phenyl)-1,2-dimethyl-lH-imidazole-4-sulfonamide] is higher in IC50: 200 to 2000 nM for the first, greater than 2000 nM for the second.

First: CC(C)c1ncccc1-c1ncc2[nH]c(=O)n(Cc3ccc(-n4ccc(F)n4)cc3)c2n1 [Compound I-59, 9-(4-(3-fluoro-1H-pyrazol-1-yl)benzyl)-2-(2-isopropylpyridin-3-yl)-7,9-dihydro-8H-purin-8-one]
Second: Cc1cc(C(F)(F)F)n(-c2ccc(Cn3c(=O)[nH]c4cnc(-c5ccccc5C(C)C)nc43)cc2)n1 [Compound I-195, 2-(2-isopropylphenyl)-9-(4-(3-methyl-5-(trifluoromethyl)-1H-pyrazol-1-yl)benzyl)-7,9-dihydro-8H-purin-8-one]
The IC50 of the first is higher: 50 to 200 nM for the first, less than 50 nM for the second.
